{"source": "patent US6743794B2", "about": "“Methods and compounds for inhibiting MRP1” (Eli Lilly and Company, priority 1999, dated 2004)", "key": {"MRP1": {"target": "T1, MRP1 (Homo sapiens, UniProt P33527)", "T1 construct": "HL60/Adr and HL60/Vinc are continuous cell lines, which were selected for doxorubicin and vincristine resistance respectively; endogenous in cells; host or cells: HL60/Adr (doxorubicin-selected HL60)", "T1 sequence (P33527 whole entry)": "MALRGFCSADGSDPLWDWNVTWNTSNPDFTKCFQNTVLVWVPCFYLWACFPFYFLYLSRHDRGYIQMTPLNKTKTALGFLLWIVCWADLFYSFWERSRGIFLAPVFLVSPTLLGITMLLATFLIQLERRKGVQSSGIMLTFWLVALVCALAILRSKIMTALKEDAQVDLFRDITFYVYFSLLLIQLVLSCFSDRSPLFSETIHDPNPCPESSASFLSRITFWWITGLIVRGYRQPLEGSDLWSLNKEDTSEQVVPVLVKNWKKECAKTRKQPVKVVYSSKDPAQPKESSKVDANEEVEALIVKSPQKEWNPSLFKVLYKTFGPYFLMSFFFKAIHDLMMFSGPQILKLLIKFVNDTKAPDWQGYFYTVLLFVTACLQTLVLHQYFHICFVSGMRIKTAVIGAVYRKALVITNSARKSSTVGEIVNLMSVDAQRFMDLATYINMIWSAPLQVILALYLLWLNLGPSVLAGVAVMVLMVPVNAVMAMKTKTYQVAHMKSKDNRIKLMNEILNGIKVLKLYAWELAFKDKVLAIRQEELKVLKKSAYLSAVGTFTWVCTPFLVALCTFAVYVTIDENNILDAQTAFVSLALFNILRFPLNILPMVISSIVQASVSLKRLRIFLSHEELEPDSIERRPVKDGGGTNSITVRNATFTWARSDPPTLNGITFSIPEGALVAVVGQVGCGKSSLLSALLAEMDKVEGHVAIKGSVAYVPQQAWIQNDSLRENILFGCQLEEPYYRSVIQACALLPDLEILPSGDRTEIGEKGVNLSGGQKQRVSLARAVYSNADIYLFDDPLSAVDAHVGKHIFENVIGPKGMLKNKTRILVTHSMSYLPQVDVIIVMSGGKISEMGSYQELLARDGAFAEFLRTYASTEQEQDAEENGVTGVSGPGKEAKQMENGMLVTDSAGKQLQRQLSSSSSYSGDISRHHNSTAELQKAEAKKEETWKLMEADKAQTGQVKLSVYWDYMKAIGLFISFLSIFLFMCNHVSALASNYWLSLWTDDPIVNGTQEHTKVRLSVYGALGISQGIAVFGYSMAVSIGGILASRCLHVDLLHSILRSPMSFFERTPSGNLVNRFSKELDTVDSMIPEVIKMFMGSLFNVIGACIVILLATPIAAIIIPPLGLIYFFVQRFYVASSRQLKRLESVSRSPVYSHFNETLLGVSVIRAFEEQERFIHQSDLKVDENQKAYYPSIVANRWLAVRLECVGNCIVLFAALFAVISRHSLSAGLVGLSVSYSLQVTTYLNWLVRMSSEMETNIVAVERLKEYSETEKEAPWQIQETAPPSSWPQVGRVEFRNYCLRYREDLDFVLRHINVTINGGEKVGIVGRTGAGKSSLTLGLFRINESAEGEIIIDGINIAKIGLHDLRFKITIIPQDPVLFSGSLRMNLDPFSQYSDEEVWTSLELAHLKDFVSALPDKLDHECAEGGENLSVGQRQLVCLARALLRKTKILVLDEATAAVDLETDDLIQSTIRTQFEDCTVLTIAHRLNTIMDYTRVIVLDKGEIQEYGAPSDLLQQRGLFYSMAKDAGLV", "assay": "Assay for reversal of MRP1-mediated doxorubicin resistance (HL60/Adr cells, alamarBlue viability)", "format": "cell-based", "details": "oncolytic alone at the tested concentration, no test compound", "description": "(§1) The biological activity of the compounds of the present invention was evaluated employing an initial screening assay which rapidly and accurately measured the activity of the tested compound in inhibiting MRP1 or MDR1. Assays useful for evaluating this reversing capability are well known in the art. See, e.g., T. McGrath, et al., Biochemical Pharmacology, 38:3611, 1989; D. Marquardt and M. S. Center, Cancer Research, 52:3157, 1992; D. Marquardt, et al., Cancer Research, 50:1426, 1990; and Cole, et. al., Cancer Research, 54: 5902-5910, 1994.\n(§2) Assay for Reversal of MRP1-Mediated Doxorubicin Resistance and MDR1-Mediated Vincristine Resistance\n(§3) HL60/Adr and HL60/Vinc are continuous cell lines, which were selected for doxorubicin and vincristine resistance respectively by culturing HL60, a human acute myeloblastic leukemia cell line, in increasing concentrations of doxorubicin or vincristine until a highly resistant variant was attained.\n(§4) HL60/Adr and HL60/Vinc cells were grown in RPMI 1640 (Gibco) containing 10% fetal bovine serum (FBS) and 50 μg/ml GENTAMICIN™ (Sigma). Cells were harvested; washed twice with assay medium (same as culture media); counted; and diluted to 1×10^5 cells/ml in assay medium. One hundred microliters of cells were aliquoted into wells of a 96 well tissue culture plate. […]"}, "MDR1": {"target": "T2, MDR1 (Homo sapiens, UniProt P08183)", "T2 construct": "HL60/Adr and HL60/Vinc are continuous cell lines, which were selected for doxorubicin and vincristine resistance respectively; endogenous in cells; host or cells: HL60/Vinc (vincristine-selected HL60)", "T2 sequence (P08183 whole entry)": "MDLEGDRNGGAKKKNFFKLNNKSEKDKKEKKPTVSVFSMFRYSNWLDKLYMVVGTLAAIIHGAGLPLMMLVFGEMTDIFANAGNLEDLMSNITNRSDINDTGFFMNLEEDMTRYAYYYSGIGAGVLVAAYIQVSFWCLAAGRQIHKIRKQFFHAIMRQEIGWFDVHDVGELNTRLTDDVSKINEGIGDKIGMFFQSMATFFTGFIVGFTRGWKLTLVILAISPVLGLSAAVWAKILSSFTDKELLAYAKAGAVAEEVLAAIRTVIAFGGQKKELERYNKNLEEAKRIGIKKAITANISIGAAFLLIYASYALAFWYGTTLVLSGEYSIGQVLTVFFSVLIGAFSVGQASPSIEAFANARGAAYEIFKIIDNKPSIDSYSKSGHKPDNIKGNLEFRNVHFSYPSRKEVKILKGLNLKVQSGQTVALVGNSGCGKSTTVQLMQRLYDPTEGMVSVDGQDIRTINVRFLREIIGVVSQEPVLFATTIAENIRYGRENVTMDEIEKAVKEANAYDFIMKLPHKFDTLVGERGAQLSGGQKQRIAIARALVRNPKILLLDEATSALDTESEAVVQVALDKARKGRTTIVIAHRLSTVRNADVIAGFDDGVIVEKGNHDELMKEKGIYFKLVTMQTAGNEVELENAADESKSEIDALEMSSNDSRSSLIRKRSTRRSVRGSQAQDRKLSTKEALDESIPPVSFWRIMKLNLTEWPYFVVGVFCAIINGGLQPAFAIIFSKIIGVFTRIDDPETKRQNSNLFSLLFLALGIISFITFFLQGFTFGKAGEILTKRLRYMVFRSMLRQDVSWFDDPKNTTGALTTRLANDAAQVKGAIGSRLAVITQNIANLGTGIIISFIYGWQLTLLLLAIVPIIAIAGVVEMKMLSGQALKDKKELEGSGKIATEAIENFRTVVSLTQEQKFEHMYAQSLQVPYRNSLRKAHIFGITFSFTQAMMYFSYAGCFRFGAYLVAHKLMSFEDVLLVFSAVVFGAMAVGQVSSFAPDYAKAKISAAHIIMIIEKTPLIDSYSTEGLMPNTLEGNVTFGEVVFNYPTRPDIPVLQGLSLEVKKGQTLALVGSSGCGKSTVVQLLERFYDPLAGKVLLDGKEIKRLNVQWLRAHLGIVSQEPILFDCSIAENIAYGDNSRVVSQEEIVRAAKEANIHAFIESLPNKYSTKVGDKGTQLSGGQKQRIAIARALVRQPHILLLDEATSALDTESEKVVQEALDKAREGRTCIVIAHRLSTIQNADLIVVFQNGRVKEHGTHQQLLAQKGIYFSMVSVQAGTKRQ", "assay": "Assay for reversal of MDR1-mediated vincristine resistance (HL60/Vinc cells, alamarBlue viability)", "format": "cell-based", "details": "oncolytic alone at the tested concentration, no test compound", "description": "as §1, §2, §3, §4"}}}
{"smiles": "COc1cccc2c1C(=O)c1c(O)c3c(c(O)c1C2=O)C[C@@](O)(C(=O)CO)C[C@@H]3O[C@H]1C[C@H](N)[C@H](O)[C@H](C)O1", "note": "[doxorubicin]", "values": [{"measurement": "inhibition of cell growth by the oncolytic alone", "setting": "MRP1", "result": "minimally inhibits"}, {"measurement": "inhibition of cell growth by the oncolytic alone", "setting": "MDR1", "result": "minimally inhibits"}]}
